Measured values as given in US5057520A, “7-(peptidylpyrolidinyl)naphthyridine antibacterial compounds” (Abbott Laboratories, priority 1989, dated 1991).
In brackets after ≈: the same amount, converted by molar mass. Counter-ions that a name gives are not always drawn.

Key:
[1] = tested on: E. Coli Juhl; test: Second in vitro MIC test, Brain Heart Infusion Broth (BHIB); assay type: cell-based
[2] = tested on: E. Coli Juhl; test: Acute mouse protection test; assay type: in vivo; conditions: mice infected i.p. with E. Coli JUHL, observed 7 days; for SC (ED50): SC dosing at 1 and 5 hours post-infection; for Oral (ED50): oral dosing at 1 and 5 hours post-infection
[3] = tested on: P. Aeruginosa A5007; test: Acute mouse protection test; assay type: in vivo; conditions: mice infected i.p. with P. Aeruginosa A5007, observed 7 days; for SC (ED50): SC dosing at 1 and 5 hours post-infection; for Oral (ED50): oral dosing at 1 and 5 hours post-infection
[4] = tested on: Strep. pyogenes EES 61; test: Second in vitro MIC test, Brain Heart Infusion Broth (BHIB); assay type: cell-based
[5] = tested on: Stap. Aureus NCTC 10649; test: Acute mouse protection test; assay type: in vivo; conditions: mice infected i.p. with Stap. Aureus NCTC 10649, observed 7 days; for SC (ED50): SC dosing at 1 and 5 hours post-infection; for Oral (ED50): oral dosing at 1 and 5 hours post-infection
[6] = Conversion of prodrug to parent drug in whole blood at 37° C.; assay type: in vitro ADME, Dog
Method: An aqueous solution of prodrug (Z) is spiked into fresh whole blood containing sodium heparin as an anticoagulant. The sample is mixed gently by inversion and placed in a 37° waterbath. At selected time intervals an 0.5 ml aliquot of blood is removed and placed in a chilled 1.5 ml centrifuge tube (ice temperature). Samples are centrifuges at 13,000 rpm for two minutes to separate plasma. An 0.2 ml aliquot of the plasma sample is combined with 0.2 ml internal standard (7-(4-amino-2-methyl-1-pyrrolidinyl)-1-(2,4-difluorophenyl)-6-fluoro-1,4-d ihydro-4-oxo-1,8-naphthyridine-3-carboxylic acid in 0.2M sodium phosphate pH 7.2 buffer) and 6 mls CH2 Cl2 :EtoH (9:1 by volume). Samples are capped and shaken gently for 10 minutes. Samples are centrifuges at 2500 rpm for 10 minutes (4° C.). The aqueous layer is aspirated to waste and the organic layer is transferred to a conical centrifuge tube and evaporated to dryness with a stream of dry air and low heat ([…]). Samples are reconstituted with 0.2 ml mobile phase followed by vortexing. Samples are centrifuges at 2500 rpm for 10 minutes to separate precipitate. The supernatant is transferred to a WISP vial with plastic insert for HPLC analysis.

[7] = tested on: Stap. Aureus CMX 553; test: Second in vitro MIC test, Brain Heart Infusion Broth (BHIB); assay type: cell-based
[8] = tested on: Ps. Aeruginosa A5007; test: as above; assay type: cell-based

| Compound | MIC [1] [µg/mL] | MIC [4] [µg/mL] | Half Life Dog [6] | Solubility pH 7.4 [mg/ml] | MIC [7] [µg/mL] | MIC [8] [µg/mL] | SC (ED50) [2] [mg/kg/day] | Oral (ED50) [2] [mg/kg/day] | SC (ED50) [3] [mg/kg/day] | Oral (ED50) [3] [mg/kg/day] | SC (ED50) [5] [mg/kg/day] | Oral (ED50) [5] [mg/kg/day] |
| --- | --- | --- | --- | --- | --- | --- | --- | --- | --- | --- | --- | --- |
| Cl.NCC(=O)N[C@@H](Cc1ccccc1)C(=O)NC1CCN(c2cc3c(cc2F)c(=O)c(C(=O)O)cn3-c2ccc(F)cc2F)C1 (stereo partly drawn) [Example 26jj, 1-(2,4-Difluorophenyl)-6-Fluoro-7-(3-Gly-L-Phe-Amino-1-Pyrrolidinyl)-1,4-Di hydro-4-Oxo-Quinoline-3-Carboxylic Acid Hydrochloride] | 16 | – | – | – | – | – | – | – | – | – | – | – |
| CC(N)C(=O)NC1CCN(c2c(F)cc3c(=O)c(C(=O)O)cn(C4CC4)c3c2F)C1 (stereo not drawn) [Example 26s] | – | – | – | – | – | – | 0.1 | 1.8 | 2.4 | 5.0 | 1.3 | 4.8 |
| CC(C)C(N)C(=O)NC1CCN(c2nc3c(cc2F)c(=O)c(C(=O)O)cn3-c2ccc(F)cc2F)C1 (stereo not drawn) [Example 19] | – | – | – | 0.41 | – | – | – | – | – | – | – | – |
| CSCC[C@H](NC(=O)[C@@H](N)CCSC)C(=O)NC1CCN(c2nc3c(cc2F)c(=O)c(C(=O)O)cn3-c2ccc(F)cc2F)C1 (stereo partly drawn) [Example 55o, 7-(3-Met-Met-amino-1-pyrrolidinyl)-6-fluoro-1-(2,4-difluorophenyl)-1,4-dih ydro-4-oxo-1,8-naphthyridine-3-carboxylic acid] | – | – | – | 0.31 | – | – | – | – | – | – | – | – |
| Cl.Cl.NCCCC[C@H](N)C(=O)NC1CCN(c2nc3c(cc2F)c(=O)c(C(=O)O)cn3-c2ccc(F)cc2F)C1 (stereo partly drawn) [Example 46, 7-(3-Lys-amino-1-pyrrolidinyl)-1-(2,4-difluorophenyl)-6-fluoro-1,4-dihydro-4-oxo-1,8-naphthyridine-3-carboxylic acid dihydrochloride] | – | 100 | 46 m | – | 100 | > 100 | – | – | 4.5 | 12.5 | 0.7 | 3.4 |
| CC(C)C[C@H](NC(=O)[C@@H](N)CC(C)C)C(=O)NC1CCN(c2nc3c(cc2F)c(=O)c(C(=O)O)cn3-c2ccc(F)cc2F)C1 (stereo partly drawn) [Example 55q, 7-(3 Leu-Leu-amino-1-pyrrolidinyl)-6-fluoro-1-(2,4-difluorophenyl)-1,4-dihydro- 4-oxo-1,8-naphthyridine-3-carboxylic acid] | – | – | – | 0.19 | – | – | – | – | – | – | – | – |
| CC(N)C(=O)NC(Cc1ccccc1)C(=O)NC1CCN(c2nc3c(cc2F)c(=O)c(C(=O)O)cn3-c2ccc(F)cc2F)C1 (stereo not drawn) [Example 11] | 16 (≈ 25.7 µM) | – | 10.4 m | 0.59 | 16.0 (≈ 25.7 µM) | 128 (≈ 206 µM) | – | – | 9.7 | 65.3 | 0.7 | 2.0 |
| CSCC[C@H](NC(=O)[C@@H](N)CC(C)C)C(=O)NC1CCN(c2nc3c(cc2F)c(=O)c(C(=O)O)cn3-c2ccc(F)cc2F)C1 (stereo partly drawn) [Example 55p, 7-(3-Leu-Met-amino-1-pyrrolidinyl)-6-fluoro-1-(2,4-difluorophenyl)-1,4-dih ydro-4-oxo-1,8-naphthyridine-3-carboxylic acid] | – | – | – | 0.06 | – | – | – | – | – | – | – | – |
| CSCC[C@H](NC(=O)[C@H](C)N)C(=O)NC1CCN(c2nc3c(cc2F)c(=O)c(C(=O)O)cn3-c2ccc(F)cc2F)C1 (stereo partly drawn) [Example 55n, 7-(3-Ala-Met-amino-1-pyrrolidinyl)-6-fluoro-1-(2,4-difluorophenyl)-1,4-dih ydro-4-oxo-1,8-naphthyridine-3-carboxylic acid] | – | – | – | 2.50 | – | – | – | – | – | – | – | – |
| CC(C)C[C@H](NC(=O)[C@H](C)N)C(=O)NC1CCN(c2nc3c(cc2F)c(=O)c(C(=O)O)cn3-c2ccc(F)cc2F)C1 (stereo partly drawn) [Example 55r, 7-(3-Ala-Leu-amino-1-pyrrolidinyl)-6-fluoro-1-(2,4-difluorophenyl)-1,4-dih ydro-4-oxo-1,8-naphthyridine-3-carboxylic acid] | – | – | – | 2.0 | – | – | – | – | – | – | – | – |
| N[C@@H](Cc1cnc[nH]1)C(=O)NC1CCN(c2nc3c(cc2F)c(=O)c(C(=O)O)cn3-c2ccc(F)cc2F)C1 (stereo partly drawn) [Example 44c, 7-(3-L-histidine-amino-1-pyrrolidinyl)-1-(2,4-difluorophenyl)-6-fluoro-1,4-dihydro-4-oxo-1,8-naphthyridine-3-carboxylic acid hydrochloride] | – | – | – | – | – | > 64 | – | – | 8.3 | 51.3 | 0.7 | 4.0 |
| NC(=O)C[C@H](N)C(=O)NC1CCN(c2nc3c(cc2F)c(=O)c(C(=O)O)cn3-c2ccc(F)cc2F)C1 (stereo partly drawn) [Example 41, 7-(3-L-Asparagine-amino-1-pyrrolidinyl)-1-(2,4-difluorophenyl)-6-fluoro-1,4-dihydro-4-oxo-1,8-naphthyridine-3-carboxylic acid hydrochloride] | – | – | – | – | – | – | – | – | 2.8 | 17.2 | 0.7 | 2.9 |
| N[C@@H](CC(=O)O)C(=O)NC1CCN(c2nc3c(cc2F)c(=O)c(C(=O)O)cn3-c2ccc(F)cc2F)C1 (stereo partly drawn) [Example 45, 7-(3-L-Asp-amino-1-pyrrolidinyl)-1-(2,4-difluorophenyl)-6-fluoro-1,4-dihyd ro-4-oxo-1,8-naphthyridine-3-carboxylic acid hydrochloride] | – | – | – | 2.40 | – | – | – | – | 6.6 | 13.0 | 0.7 | 1.5 |

More lines, main results first:

| MIC [1] [µg/mL] | MIC [4] [µg/mL] | Half Life Dog [6] | Solubility pH 7.4 [mg/ml] | MIC [7] [µg/mL] | MIC [8] [µg/mL] | Compound | SC (ED50) [2] [mg/kg/day] | Oral (ED50) [2] [mg/kg/day] | SC (ED50) [3] [mg/kg/day] | Oral (ED50) [3] [mg/kg/day] | SC (ED50) [5] [mg/kg/day] | Oral (ED50) [5] [mg/kg/day] |
| --- | --- | --- | --- | --- | --- | --- | --- | --- | --- | --- | --- | --- |
| – | 25 | – | – | – | – | CS(=O)(=O)CC[C@H](N)C(=O)NC1CCN(c2nc3c(cc2F)c(=O)c(C(=O)O)cn3-c2ccc(F)cc2F)C1 (stereo partly drawn) [Example 31c, 7-[3-L-Methioninesulfone-Amino-1-Pyrrolidinyl]-1-(2,4-Difluorophenyl)-6-Flu oro-1,4-Dihydro-4-Oxo 1.8-Naphthyridine-3-Carboxylic Acid Hydrochloride] | 0.2 | 1.8 | 2.4 | 7.8 | 0.5 | 1.8 |
| – | 1.56 (≈ 3.21 µM) | 108.1 s | – | – | – | CCCC(N)C(=O)NC1CCN(c2nc3c(cc2F)c(=O)c(C(=O)O)cn3-c2ccc(F)cc2)C1 (stereo not drawn) [Example 26i] | – | – | – | – | 0.7 | 5.3 |
| – | – | 118.5 s | – | – | – | CCCC(N)C(=O)NC1CCN(c2cc3c(cc2F)c(=O)c(C(=O)O)cn3C2CC2)C1 (stereo not drawn) [Example 26l] | 0.5 | 9.4 | 2.8 | 18.2 | 4.0 | – |
| – | – | 43.4 s | – | – | – | CCCC(N)C(=O)NC1CCN(c2cc3c(cc2F)c(=O)c(C(=O)O)cn3-c2ccc(F)cc2F)C1 (stereo not drawn) [Example 26b] | – | – | 6.7 | 18.2 | 0.8 | 27.9 |
| 0.78 (≈ 1.61 µM) | – | 51.1 s | – | – | – | CCCC(N)C(=O)NC1CCN(c2cc3c(cc2F)c(=O)c(C(=O)O)cn3-c2ccc(F)cc2)C1 (stereo not drawn) [Example 26h] | 0.8 | 12.1 | 8.5 | 101.3 | 1.0 | 4.0 |
| – | – | 70.1 s | – | – | – | CCCC(N)C(=O)NC1CCN(c2nc3c(cc2F)c(=O)c(C(=O)O)cn3C2CC2)C1 (stereo not drawn) [Example 26p] | – | – | 2.8 | 9.1 | 6.8 | 4.5 |
| – | – | 71.7 s | – | – | – | CCCC(N)C(=O)NC1CCN(c2c(F)cc3c(=O)c(C(=O)O)cn(C4CC4)c3c2F)C1 (stereo not drawn) [Example 26r] | 0.2 | 2.3 | 2.7 | 7.3 | 0.9 | 3.0 |
| – | – | 92.6 s | – | – | – | CCC[C@H](N)C(=O)NC1CCN(c2nc3c(cc2F)c(=O)c(C(=O)O)cn3CC)C1 (stereo partly drawn) [Example 26ff] | – | – | 10.3 | 30.5 | – | – |
| – | – | 108.6 s | – | – | – | CC(C)CC(N)C(=O)NC1CCN(c2nc3c(cc2F)c(=O)c(C(=O)O)cn3C2CC2)C1 (stereo not drawn) [Example 26o] | 0.2 | 1.2 | 3.9 | 6.2 | 1.0 | 4.0 |
